Results on 19 molecules are retold here after US7064120B2, “Tricyclic pyridyl carboxamides and derivatives thereof tocolytic oxytocin receptor antagonists” (Wyeth, priority 2001, dated 2006).

Each structure is given as a SMILES string.

What is called inhibition is the drop in the measured response relative to a control, in per cent.

In this experiment the target is T1, human vasopressin V2 receptor subtype (Homo sapiens, UniProt P30518).
T1 construct: host or cells: CHO cells, stably transfected (pZeoSV vector)
T1 sequence (P30518 whole entry): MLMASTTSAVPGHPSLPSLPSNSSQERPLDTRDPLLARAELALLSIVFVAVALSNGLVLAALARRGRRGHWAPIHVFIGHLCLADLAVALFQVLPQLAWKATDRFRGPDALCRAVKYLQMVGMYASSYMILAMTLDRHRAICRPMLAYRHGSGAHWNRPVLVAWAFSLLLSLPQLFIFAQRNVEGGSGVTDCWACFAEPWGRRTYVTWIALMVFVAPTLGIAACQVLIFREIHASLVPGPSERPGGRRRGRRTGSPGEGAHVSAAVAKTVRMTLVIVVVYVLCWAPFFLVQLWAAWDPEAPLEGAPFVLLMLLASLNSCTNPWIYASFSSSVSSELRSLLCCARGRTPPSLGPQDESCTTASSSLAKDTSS
Kind of experiment: Vasopressin binding in CHO cell membranes expressing human vasopressin V2 subtype receptors ([3H]arginine vasopressin radioligand binding). The note with it: 100 nM. The method, boiled down: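 Values are IC50 in nM or percent inhibition at a stated concentration, from scintillation counts after filtration. Binding ran 60 min at room temperature: [3H]arginine vasopressin, human V2-transfected CHO membranes (25 to 50 μg protein/well), pH 7.4 Tris-HCl buffer containing MgCl2, BSA, protease inhibitors.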
With `COc1cc(-c2ccccc2C)c(Cl)cc1C(=O)N1Cc2ccc(C(=O)NCc3ccccn3)n2Cc2ccccc21` [Example 29, 10-[(6-Chloro-3-methoxy-2′-methyl-[1,1′-biphenyl]-4-yl)carbonyl]-N-(2-pyridinylmethyl)-10,11-dihydro-5H-pyrrolo[2,1-c][1,4]benzodiazepine-3-carboxamide], the inhibition at 0.1 µM was 12%.
Regarding `COc1cc(-c2ccccc2C)c(Cl)cc1C(=O)N1Cc2ccc(C(=O)NCc3cccnc3)n2Cc2ccccc21` [Example 42, 10-[(6-Chloro-3-methoxy-2′-methyl-[1,1′-biphenyl]-4-yl)carbonyl]-N-(3-pyridinylmethyl)-10,11-dihydro-5H-pyrrolo[2,1-c][1,4]benzodiazepine-3-carboxamide], the inhibition at 0.1 µM was 8%.
As to `COc1cccc(-c2cc(OC)c(C(=O)N3Cc4ccc(C(=O)N(C)Cc5cccnc5)n4Cc4ccccc43)cc2Cl)c1` [Example 108, 10-[(6-Chloro-3,3′-dimethoxy-[1,1′-biphenyl]-4-yl)carbonyl]-N-methyl-N-(3-pyridinylmethyl)-10,11-dihydro-5H-pyrrolo[2,1-c][1,4]benzodiazepine-3-carboxamide], the inhibition at 0.1 µM is 24%.
Turning to `COc1cc(-c2ccccc2C)c(Cl)cc1C(=O)N1Cc2ccc(C(=O)N3CCCCC3c3cccnc3)n2Cc2ccccc21` (stereo not shown) [Example 140, {10-[(6-Chloro-3-methoxy-2′-methyl-[1,1′-biphenyl]-4-yl)carbonyl]-10,11-dihydro-5H-pyrrolo[2,1-c][1,4]benzodiazepin-3-yl}[2-(3-pyridinyl)-1-piperidinyl]methanone], the inhibition at 0.1 µM came out at 29%.
As for `Cc1ccccc1-c1ccc(C(=O)N2Cc3ccc(C(=O)N4CCN(c5ccncc5)CC4)n3Cc3ccccc32)cc1C` [Example 114, {10-[(2,2′-Dimethyl-[1,1′-biphenyl]-4-yl)carbonyl]-10,11-dihydro-5H-pyrrolo[2,1-c][1,4]benzodiazepin-3-yl}[4-(4-pyridinyl)-1-piperazinyl]methanone], the inhibition at 0.1 µM worked out at 18%.
Turning to `COc1cc(C(=O)N2Cc3ccc(C(=O)N(C)Cc4cccnc4)n3Cc3ccccc32)ccc1-c1cccc2ccccc12` [Example 109, 10-[3-Methoxy-4-(naphthalen-1-yl)benzoyl]-N-methyl-N-(3-pyridinylmethyl)-10,11-dihydro-5H-pyrrolo[2,1-c][1,4]benzodiazepine-3-carboxamide], the inhibition at 0.1 µM is 0%.
On to `Cc1cc(C(=O)N2Cc3ccc(C(=O)NCc4ccccn4)n3Cc3ccccc32)ccc1-c1ccccc1C(F)(F)F` [Example 35, 10-{[2-Methyl-2′-trifluoromethyl-[1,1′-biphenyl]-4-yl]carbonyl}-N-(2-pyridinylmethyl)-10,11-dihydro-5H-pyrrolo[2,1-c][1,4]benzodiazepine-3-carboxamide], for which the inhibition at 0.1 µM was determined as 14%.
As for `COc1cccc(-c2ccc(C(=O)N3Cc4ccc(C(=O)NCCc5ccccn5)n4Cc4ccccc43)cc2OC)c1` [Example 59, 10-[(2,3′-Dimethoxy-[1,1′-biphenyl]-4-yl)carbonyl]-N-[2-(2-pyridinyl)ethyl]-10,11-dihydro-5H-pyrrolo[2,1-c][1,4]benzodiazepine-3-carboxamide], the inhibition at 0.1 µM was determined as 4%.
On to `COc1ccccc1-c1ccc(C(=O)N2Cc3ccc(C(=O)N4CCN(c5ccncc5)CC4)n3Cc3ccccc32)cc1` [Example 116, {10-[(2′-Methoxy-[1,1′-biphenyl]-4-yl)carbonyl]-10,11-dihydro-5H-pyrrolo[2,1-c][1,4]benzodiazepin-3-yl}[4-(4-pyridinyl)-1-piperazinyl]methanone], for which the inhibition at 0.1 µM amounted to 63%.
Same read-out and setting: then `CN(Cc1cccnc1)C(=O)c1ccc2n1Cc1ccccc1N(C(=O)c1ccc(-c3cccc4ccccc34)cc1Cl)C2` [Example 111, 10-[2-Chloro-4-(naphthalen-1-yl)benzoyl]-N-methyl-N-(3-pyridinylmethyl)-10,11-dihydro-5H-pyrrolo[2,1-c][1,4]benzodiazepine-3-carboxamide], with 23%.
As for `COc1cc(C(=O)N2Cc3ccc(C(=O)N4CCN(c5ccncc5)CC4)n3Cc3ccccc32)ccc1-c1ccccc1C` [Example 118], the “V2 % inhibition @ 100 nM” value was −10%.
Take `COc1cccc(-c2cc(OC)c(C(=O)N3Cc4ccc(C(=O)NCc5cccnc5)n4Cc4ccccc43)cc2Cl)c1` [Example 43, 10-[(6-Chloro-3,3′-dimethoxy-[1,1′-biphenyl]-4-yl)carbonyl]-N-(3-pyridinylmethyl)-10,11-dihydro-5H-pyrrolo[2,1-c][1,4]benzodiazepine-3-carboxamide]: the inhibition at 0.1 µM is 7%.
As to `COc1cccc(-c2ccc(C(=O)N3Cc4ccc(C(=O)N(C)Cc5cccnc5)n4Cc4ccccc43)cc2OC)c1` [Example 110], the “V2 % inhibition @ 100 nM” value was 32%.
As to `COc1cccc(-c2cc(OC)c(C(=O)N3Cc4ccc(C(=O)N5CCN(c6ccncc6)CC5)n4Cc4ccccc43)cc2Cl)c1` [Example 120, {10-[(6-Chloro-3,3′-dimethoxy-[1,1′-biphenyl]-4-yl)carbonyl]-10,11-dihydro-5H-pyrrolo[2,1-c][1,4]benzodiazepin-3-yl}[4-(4-pyridinyl)-1-piperazinyl]methanone], the inhibition at 0.1 µM stood at 16%.
Turning to `COc1cccc(-c2cc(OC)c(C(=O)N3Cc4ccc(C(=O)N(C)CCc5ccncc5)n4Cc4ccccc43)cc2Cl)c1` [Example 133, 10-[(6-Chloro-3,3′-dimethoxy-[1,1′-biphenyl]-4-yl)carbonyl]-N-methyl-N-[2-(4-pyridinyl)ethyl]-10,11-dihydro-5H-pyrrolo[2,1-c][1,4]benzodiazepine-3-carboxamide], the inhibition at 0.1 µM was found to be 15%.
Same read-out and setting: next, `Cc1ccccc1-c1ccc(C(=O)N2Cc3ccc(C(=O)NCCc4ccccn4)n3Cc3ccccc32)cc1C` [Example 50, 10-[(2,2′-Dimethyl-[1,1′-biphenyl]-4-yl)carbonyl]-N-[2-(2-pyridinyl)ethyl]-10,11-dihydro-5H-pyrrolo[2,1-c][1,4]benzodiazepine-3-carboxamide]: 17%.
Consider `Cc1ccccc1-c1ccc(C(=O)N2Cc3ccc(C(=O)N(C)CCc4ccncc4)n3Cc3ccccc32)cc1` [Example 130, N-Methyl-10-[(2′-methyl-[1,1′-biphenyl]-4-yl)carbonyl]-N-[2-(4-pyridinyl)ethyl]-10,11-dihydro-5H-pyrrolo[2,1-c][1,4]benzodiazepine-3-carboxamide], for which the inhibition at 0.1 µM is 12%.
In the case of `COc1cc(C(=O)N2Cc3ccc(C(=O)N4CCN(c5ccncc5)CC4)n3Cc3ccccc32)ccc1-c1cccc2ccccc12` [Example 121, {10-[3-Methoxy-4-(naphthalen-1-yl)benzoyl]-10,11-dihydro-5H-pyrrolo[2,1-c][1,4]benzodiazepin-3-yl}[4-(4-pyridinyl)-1-piperazinyl]methanone], the inhibition at 0.1 µM is -4%.
For the molecule `Cc1cc(C(=O)N2Cc3ccc(C(=O)N4CCCCC4c4cccnc4)n3Cc3ccccc32)ccc1-c1ccccc1C(F)(F)F` (stereo not shown) [Example 142, (10-{[2-Methyl-2′-trifluoromethyl-[1,1′-biphenyl]-4-yl]carbonyl}-10,11-dihydro-5H-pyrrolo[2,1-c][1,4]benzodiazepin-3-yl)[2-(3-pyridinyl)-1-piperidinyl]methanone], the inhibition at 0.1 µM is 16%.
